ChEMBL document CHEMBL1909046, “DrugMatrix in vitro pharmacology data”

Tests used:
[1] = molecular target: T1, Alpha-2C adrenergic receptor (Homo sapiens, UniProt P18825); assay: DRUGMATRIX: Adrenergic Alpha-2C radioligand binding (ligand: [3H] MK-912); format: cell membranes, Sf9, Membrane; settings: sf9
T1 sequence (P18825 whole entry): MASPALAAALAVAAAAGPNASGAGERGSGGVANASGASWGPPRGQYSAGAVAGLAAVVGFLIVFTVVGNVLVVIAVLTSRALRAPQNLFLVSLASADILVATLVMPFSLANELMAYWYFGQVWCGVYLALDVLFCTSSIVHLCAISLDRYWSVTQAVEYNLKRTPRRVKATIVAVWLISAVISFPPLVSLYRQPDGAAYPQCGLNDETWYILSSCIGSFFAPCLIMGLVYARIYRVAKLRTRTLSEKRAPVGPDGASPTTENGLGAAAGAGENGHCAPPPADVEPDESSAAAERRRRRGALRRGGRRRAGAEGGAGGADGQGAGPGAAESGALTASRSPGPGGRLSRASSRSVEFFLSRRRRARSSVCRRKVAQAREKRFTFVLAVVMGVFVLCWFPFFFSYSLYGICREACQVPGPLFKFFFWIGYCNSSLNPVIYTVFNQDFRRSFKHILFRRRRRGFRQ

[2] = molecular target: T2, B2 bradykinin receptor (Homo sapiens, UniProt P30411); format: cell membranes, Membrane; settings: chem-1; note: in other assays of this panel Not Active means under 50% inhibition at 10 µM
T2 sequence (P30411 whole entry): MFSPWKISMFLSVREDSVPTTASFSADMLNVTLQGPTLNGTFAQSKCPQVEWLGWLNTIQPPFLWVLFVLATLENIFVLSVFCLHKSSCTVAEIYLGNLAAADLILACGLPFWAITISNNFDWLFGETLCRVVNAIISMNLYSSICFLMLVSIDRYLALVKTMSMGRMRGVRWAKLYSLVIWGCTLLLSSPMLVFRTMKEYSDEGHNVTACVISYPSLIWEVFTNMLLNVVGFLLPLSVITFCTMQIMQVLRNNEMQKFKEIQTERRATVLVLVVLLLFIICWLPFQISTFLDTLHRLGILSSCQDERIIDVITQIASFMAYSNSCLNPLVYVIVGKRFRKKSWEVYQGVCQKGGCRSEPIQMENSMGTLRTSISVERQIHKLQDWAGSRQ

[3] = molecular target: T3, Substance-K receptor (Homo sapiens, UniProt P21452); format: cell membranes, CHO, Membrane; settings: cho; note: in other assays of this panel Not Active means under 50% inhibition at 10 µM
T3 sequence (P21452 whole entry): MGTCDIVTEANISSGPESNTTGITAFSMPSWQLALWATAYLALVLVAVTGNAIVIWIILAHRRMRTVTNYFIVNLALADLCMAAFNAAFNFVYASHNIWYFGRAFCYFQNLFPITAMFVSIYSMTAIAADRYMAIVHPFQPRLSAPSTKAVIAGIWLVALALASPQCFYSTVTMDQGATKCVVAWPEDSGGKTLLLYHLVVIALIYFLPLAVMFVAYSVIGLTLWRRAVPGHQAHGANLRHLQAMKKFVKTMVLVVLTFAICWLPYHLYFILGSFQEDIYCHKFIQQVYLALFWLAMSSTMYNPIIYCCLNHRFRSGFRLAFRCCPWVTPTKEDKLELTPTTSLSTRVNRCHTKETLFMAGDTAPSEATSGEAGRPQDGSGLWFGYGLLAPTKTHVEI

[4] = molecular target: Cannabinoid receptor 1 (Homo sapiens, UniProt P21554); format: cell membranes, Membrane; settings: chem-1; note: in other assays of this panel Not Active means under 50% inhibition at 10 µM
Chain of Cannabinoid receptor 1 (P21554 whole entry): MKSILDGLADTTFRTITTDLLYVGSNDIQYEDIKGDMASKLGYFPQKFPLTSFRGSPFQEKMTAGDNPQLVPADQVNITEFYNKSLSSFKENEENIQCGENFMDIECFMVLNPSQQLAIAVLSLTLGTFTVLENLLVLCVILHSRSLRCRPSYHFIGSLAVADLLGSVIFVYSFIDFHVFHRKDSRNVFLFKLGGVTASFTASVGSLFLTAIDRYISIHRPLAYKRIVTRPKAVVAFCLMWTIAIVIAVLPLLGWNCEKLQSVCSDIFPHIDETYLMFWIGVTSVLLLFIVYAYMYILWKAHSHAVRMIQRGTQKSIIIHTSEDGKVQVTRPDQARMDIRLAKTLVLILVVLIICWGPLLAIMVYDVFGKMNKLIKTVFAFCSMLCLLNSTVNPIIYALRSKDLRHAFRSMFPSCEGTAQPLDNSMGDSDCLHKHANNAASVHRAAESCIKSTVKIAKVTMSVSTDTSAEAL

[5] = molecular target: T4, C-X-C chemokine receptor type 1 (Homo sapiens, UniProt P25024); note: in other assays of this panel Not Active means under 50% inhibition at 10 µM
T4 sequence (P25024 whole entry): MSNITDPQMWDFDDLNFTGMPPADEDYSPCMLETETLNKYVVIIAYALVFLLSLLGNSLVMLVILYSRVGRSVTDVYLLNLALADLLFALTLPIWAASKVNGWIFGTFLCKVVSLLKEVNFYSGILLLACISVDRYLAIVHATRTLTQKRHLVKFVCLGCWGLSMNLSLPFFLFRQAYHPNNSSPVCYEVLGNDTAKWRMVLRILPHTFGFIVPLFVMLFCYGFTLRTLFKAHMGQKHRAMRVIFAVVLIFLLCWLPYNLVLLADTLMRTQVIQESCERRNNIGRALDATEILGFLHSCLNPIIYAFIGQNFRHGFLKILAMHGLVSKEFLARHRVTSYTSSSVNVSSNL

[6] = DRUGMATRIX: GABAA, Chloride Channel, TBOB radioligand binding (ligand: [3H] TBOB); format: cell membranes, Rattus norvegicus, Wistar, Cerebral cortex, Membrane; settings: Not Active = under 50% inhibition at 10 µM
[7] = molecular target: Nitric oxide synthase 1 (Rattus norvegicus, UniProt P29476); format: tissue-based, Cerebellum; note: in other assays of this panel Not Active means under 50% inhibition at 10 µM
Chain of Nitric oxide synthase 1 (P29476 whole entry): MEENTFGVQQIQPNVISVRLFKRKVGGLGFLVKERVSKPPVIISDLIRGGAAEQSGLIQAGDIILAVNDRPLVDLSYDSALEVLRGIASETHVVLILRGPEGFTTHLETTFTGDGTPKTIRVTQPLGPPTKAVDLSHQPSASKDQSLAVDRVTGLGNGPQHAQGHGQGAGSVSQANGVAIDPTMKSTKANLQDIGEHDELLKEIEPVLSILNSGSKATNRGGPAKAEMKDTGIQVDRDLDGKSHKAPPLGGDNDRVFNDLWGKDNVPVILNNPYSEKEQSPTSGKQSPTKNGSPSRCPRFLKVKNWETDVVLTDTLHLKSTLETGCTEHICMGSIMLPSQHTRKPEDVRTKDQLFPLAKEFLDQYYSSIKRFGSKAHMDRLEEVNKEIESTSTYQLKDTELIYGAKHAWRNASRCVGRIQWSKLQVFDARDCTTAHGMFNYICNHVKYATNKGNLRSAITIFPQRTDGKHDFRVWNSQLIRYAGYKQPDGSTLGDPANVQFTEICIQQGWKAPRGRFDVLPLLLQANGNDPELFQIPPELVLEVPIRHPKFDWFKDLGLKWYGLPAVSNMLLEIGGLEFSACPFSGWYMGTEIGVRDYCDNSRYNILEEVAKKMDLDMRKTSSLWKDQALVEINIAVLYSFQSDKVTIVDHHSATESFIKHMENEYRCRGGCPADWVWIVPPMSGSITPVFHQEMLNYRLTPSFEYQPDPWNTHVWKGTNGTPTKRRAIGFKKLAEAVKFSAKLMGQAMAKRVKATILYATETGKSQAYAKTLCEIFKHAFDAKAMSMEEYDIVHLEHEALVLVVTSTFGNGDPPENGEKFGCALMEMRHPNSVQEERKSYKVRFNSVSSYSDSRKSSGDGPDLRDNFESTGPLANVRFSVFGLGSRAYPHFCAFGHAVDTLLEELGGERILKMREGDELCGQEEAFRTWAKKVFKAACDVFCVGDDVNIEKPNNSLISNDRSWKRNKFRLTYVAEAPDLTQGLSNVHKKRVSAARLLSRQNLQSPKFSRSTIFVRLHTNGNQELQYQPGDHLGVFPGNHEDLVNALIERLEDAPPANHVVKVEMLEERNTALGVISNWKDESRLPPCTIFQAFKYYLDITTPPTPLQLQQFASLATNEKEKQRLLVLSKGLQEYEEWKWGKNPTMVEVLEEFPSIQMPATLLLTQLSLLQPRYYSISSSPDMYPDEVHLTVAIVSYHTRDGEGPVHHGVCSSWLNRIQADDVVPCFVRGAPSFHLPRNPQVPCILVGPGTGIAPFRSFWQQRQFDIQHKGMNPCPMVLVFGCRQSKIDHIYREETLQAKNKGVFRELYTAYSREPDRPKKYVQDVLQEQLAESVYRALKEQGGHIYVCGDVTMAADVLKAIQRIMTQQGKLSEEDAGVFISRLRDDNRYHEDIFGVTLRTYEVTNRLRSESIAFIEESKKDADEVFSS

[8] = molecular target: cGMP-specific 3',5'-cyclic phosphodiesterase (Homo sapiens, UniProt O76074); assay: DRUGMATRIX: Phosphodiesterase PDE5 enzyme inhibition (substrate: [3H]cGMP + cGMP); format: tissue-based, Platelet; settings: platelet; Not Active = under 50% inhibition at 10 µM
[9] = DRUGMATRIX: Platelet-Derived Growth Factor (PDGF) radioligand binding (ligand: [125I] PDGF); format: cell-based; settings: nih3t3; Not Active = under 50% inhibition at 10 µM
[10] = DRUGMATRIX: Potassium Channel [KATP] radioligand binding (ligand: [3H] Glyburide); format: cell membranes, Membrane; settings: hit-t15; Not Active = under 50% inhibition at 10 µM
[11] = molecular target: Mitogen-activated protein kinase 3 (Homo sapiens, UniProt P27361); assay: DRUGMATRIX: Protein Serine/Threonine Kinase, ERK1 enzyme inhibition (substrate: Myelin Basic Protein); set-up: species or system Escherichia coli; settings: Not Active = under 50% inhibition at 10 µM
Chain of Mitogen-activated protein kinase 3 (P27361 whole entry): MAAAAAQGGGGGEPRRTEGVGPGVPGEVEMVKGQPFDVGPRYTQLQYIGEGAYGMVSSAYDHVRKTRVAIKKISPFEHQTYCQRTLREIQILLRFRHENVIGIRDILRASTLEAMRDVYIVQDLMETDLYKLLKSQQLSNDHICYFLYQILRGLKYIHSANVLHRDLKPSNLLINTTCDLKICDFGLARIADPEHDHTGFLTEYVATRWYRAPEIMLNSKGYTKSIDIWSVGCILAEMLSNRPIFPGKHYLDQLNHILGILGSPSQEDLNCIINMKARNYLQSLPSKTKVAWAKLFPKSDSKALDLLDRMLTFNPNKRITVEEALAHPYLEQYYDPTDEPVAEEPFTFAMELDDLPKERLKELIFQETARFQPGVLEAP

[12] = molecular target: Protein phosphatase 3 catalytic subunit alpha (Homo sapiens, UniProt Q08209); set-up: species or system Escherichia coli
[13] = molecular target: Acetylcholinesterase (Homo sapiens, UniProt P22303); assay: DRUGMATRIX: Acetylcholinesterase enzyme inhibition (substrate: acetylthiocholine); format: cell-based, HEK293; settings: hek293; Not Active = under 50% inhibition at 10 µM
Chain of Acetylcholinesterase (P22303 whole entry): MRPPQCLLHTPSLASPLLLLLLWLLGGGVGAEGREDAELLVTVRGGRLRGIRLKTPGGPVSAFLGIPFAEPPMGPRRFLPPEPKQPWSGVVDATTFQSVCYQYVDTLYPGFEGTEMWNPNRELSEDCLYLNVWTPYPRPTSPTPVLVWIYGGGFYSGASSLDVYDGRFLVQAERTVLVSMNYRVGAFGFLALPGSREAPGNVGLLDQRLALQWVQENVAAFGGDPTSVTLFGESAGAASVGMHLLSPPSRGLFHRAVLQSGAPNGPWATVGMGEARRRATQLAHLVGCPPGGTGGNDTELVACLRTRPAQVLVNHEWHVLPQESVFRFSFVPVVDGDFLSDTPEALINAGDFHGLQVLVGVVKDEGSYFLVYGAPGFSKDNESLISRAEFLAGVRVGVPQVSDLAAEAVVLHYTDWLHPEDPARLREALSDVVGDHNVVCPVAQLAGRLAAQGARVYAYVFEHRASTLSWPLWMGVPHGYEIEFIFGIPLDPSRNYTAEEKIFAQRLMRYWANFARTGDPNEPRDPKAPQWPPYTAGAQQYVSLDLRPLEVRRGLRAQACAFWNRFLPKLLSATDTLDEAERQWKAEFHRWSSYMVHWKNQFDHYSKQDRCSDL

[14] = molecular target: Adenosine receptor A2a (Homo sapiens, UniProt P29274); assay: DRUGMATRIX: Adenosine A2A radioligand binding (ligand: […]); format: cell membranes, HEK293, Membrane; settings: hek293; Not Active = under 50% inhibition at 10 µM
Chain of Adenosine receptor A2a (P29274 whole entry): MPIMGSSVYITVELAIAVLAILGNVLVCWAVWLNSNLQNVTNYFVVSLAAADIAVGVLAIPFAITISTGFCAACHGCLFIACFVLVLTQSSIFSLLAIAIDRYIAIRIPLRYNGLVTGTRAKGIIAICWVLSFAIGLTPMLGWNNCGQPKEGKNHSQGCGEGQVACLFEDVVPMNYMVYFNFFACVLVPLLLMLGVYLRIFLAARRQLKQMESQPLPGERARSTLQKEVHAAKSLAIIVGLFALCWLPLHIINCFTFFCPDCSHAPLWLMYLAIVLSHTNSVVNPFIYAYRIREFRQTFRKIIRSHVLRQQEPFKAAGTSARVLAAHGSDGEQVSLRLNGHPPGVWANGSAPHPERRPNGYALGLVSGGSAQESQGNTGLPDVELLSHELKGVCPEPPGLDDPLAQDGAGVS

NNc1ccccc1 [PHENYLHYDRAZINE]
Not Active: IC50 [1] | IC50 [2] | IC50 [3] | IC50 [4] | IC50 [5] | IC50 [6] | Ki [6] | IC50 [7] | IC50 [8] | IC50 [9] | Ki [9] | IC50 [10] | Ki [10] | IC50 [11] | IC50 [12] | IC50 [13] | IC50 [14]

CC[C@H]1OC(=O)[C@H](C)[C@@H](O[C@H]2C[C@@](C)(OC)[C@@H](O)[C@H](C)O2)[C@H](C)[C@@H](O[C@@H]2O[C@H](C)C[C@H](N(C)C)[C@H]2O)[C@](C)(O)C[C@@H](C)/C(=N\OCOCCOC)[C@H](C)[C@@H](O)[C@]1(C)O [ROXITHROMYCIN]
Not Active: IC50 [1] | IC50 [2] | IC50 [3] | IC50 [4] | IC50 [5] | IC50 [6] | Ki [6] | IC50 [7] | IC50 [8] | IC50 [9] | Ki [9] | IC50 [10] | Ki [10] | IC50 [11] | IC50 [12] | IC50 [13] | IC50 [14]

Nc1ccc(S(=O)(=O)Nc2ccnn2-c2ccccc2)cc1 [SULFAPHENAZOLE]
Not Active: IC50 [1] | IC50 [2] | IC50 [3] | IC50 [4] | IC50 [5] | IC50 [6] | Ki [6] | IC50 [7] | IC50 [8] | IC50 [9] | Ki [9] | IC50 [10] | Ki [10] | IC50 [11] | IC50 [12] | IC50 [13] | IC50 [14]

CCOC(=O)[C@H](CCc1ccccc1)N[C@@H](C)C(=O)N1[C@H](C(=O)O)C[C@@H]2CCC[C@@H]21
Not Active: IC50 [1] | IC50 [2] | IC50 [3] | IC50 [4] | IC50 [5] | IC50 [6] | Ki [6] | IC50 [7] | IC50 [8] | IC50 [9] | Ki [9] | IC50 [10] | Ki [10] | IC50 [11] | IC50 [12] | IC50 [13] | IC50 [14]
